We go through 36 molecules from patent publication US20090012103A1, “SUBSTITUTED HETEROCYCLIC COMPOUNDS” (priority 2007, published 2009).

The target in the experiment is wild-type human cardiac sodium channel, hNav1.5 (Homo sapiens, UniProt Q14524). The experiment can be described thus: Late INa screening assay (late sodium current, PatchXpress whole cell patch clamp). The format is cell-based. As to conditions: compound at 10 μM; read-out: Late INa % blk. A general note: The patch-clamp technique gives a direct electrical read-out from membranes.
Chain of wild-type human cardiac sodium channel, hNav1.5 (Q14524 whole entry): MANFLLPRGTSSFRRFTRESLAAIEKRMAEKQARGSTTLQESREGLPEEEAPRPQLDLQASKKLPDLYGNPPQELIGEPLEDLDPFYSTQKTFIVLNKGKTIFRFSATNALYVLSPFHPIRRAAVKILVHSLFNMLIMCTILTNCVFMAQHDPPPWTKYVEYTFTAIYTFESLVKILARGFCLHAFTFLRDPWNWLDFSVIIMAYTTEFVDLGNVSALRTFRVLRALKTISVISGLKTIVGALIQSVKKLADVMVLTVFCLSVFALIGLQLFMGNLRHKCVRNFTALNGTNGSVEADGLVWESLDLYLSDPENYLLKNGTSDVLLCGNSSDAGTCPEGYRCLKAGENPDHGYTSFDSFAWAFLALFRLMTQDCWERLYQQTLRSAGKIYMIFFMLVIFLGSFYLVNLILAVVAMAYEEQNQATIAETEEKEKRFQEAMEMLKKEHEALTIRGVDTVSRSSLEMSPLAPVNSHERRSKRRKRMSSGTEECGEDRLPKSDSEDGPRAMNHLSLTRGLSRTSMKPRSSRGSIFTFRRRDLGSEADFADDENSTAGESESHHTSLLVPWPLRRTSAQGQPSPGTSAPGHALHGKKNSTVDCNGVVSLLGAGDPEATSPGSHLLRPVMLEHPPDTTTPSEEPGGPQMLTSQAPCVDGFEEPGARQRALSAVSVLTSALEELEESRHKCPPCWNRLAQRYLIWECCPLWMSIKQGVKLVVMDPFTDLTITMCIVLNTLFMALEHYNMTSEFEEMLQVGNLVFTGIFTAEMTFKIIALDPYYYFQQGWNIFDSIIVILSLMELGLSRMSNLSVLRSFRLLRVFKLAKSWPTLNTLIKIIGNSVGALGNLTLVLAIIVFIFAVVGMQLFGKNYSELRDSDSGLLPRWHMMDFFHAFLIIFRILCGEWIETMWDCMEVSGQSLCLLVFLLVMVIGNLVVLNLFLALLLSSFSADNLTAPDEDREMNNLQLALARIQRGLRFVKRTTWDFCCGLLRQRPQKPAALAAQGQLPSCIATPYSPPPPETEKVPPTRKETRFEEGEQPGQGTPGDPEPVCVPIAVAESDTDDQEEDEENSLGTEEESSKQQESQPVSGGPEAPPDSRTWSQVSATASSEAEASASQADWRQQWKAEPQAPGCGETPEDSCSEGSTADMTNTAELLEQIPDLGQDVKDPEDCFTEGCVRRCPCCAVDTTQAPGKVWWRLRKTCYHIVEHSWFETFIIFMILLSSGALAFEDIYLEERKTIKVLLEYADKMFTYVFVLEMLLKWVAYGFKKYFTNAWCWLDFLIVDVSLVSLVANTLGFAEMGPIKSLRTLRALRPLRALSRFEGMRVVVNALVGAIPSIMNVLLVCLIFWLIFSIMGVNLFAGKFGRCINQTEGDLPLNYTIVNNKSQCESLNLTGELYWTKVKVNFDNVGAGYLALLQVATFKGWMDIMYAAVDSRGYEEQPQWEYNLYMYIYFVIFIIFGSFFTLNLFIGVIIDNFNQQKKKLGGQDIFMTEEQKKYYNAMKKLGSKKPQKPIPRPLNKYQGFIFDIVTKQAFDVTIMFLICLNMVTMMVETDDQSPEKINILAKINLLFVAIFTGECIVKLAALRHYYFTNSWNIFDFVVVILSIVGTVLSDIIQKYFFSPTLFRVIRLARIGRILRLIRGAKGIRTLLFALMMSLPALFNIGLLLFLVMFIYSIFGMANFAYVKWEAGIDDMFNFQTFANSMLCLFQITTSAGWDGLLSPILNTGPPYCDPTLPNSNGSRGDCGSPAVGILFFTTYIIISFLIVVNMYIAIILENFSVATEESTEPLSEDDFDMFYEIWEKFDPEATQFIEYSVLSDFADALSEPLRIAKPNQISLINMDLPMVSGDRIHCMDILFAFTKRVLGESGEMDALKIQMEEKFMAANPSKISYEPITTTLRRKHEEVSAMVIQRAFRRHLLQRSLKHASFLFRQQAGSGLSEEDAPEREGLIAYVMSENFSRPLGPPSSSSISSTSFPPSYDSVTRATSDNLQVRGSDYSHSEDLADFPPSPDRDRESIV
Take `CC1=C(C(=O)OCc2ccccc2)C(c2ccccc2-c2ccccc2C#N)n2nnnc2N1` (stereo not drawn) [PT-390, benzyl 7-(2′-cyanobiphenyl-2-yl)-5-methyl-4,7-dihydrotetrazolo[1,5-a]pyrimidine-6-carboxylate]: the inhibition at 10 µM stood at 20%.

`CC1=C(C(=O)OCc2ccccc2)C(c2ccccc2F)n2nnnc2N1` (stereo not drawn) [PT-391, benzyl 7-(2-fluorophenyl)-5-methyl-4,7-dihydrotetrazolo[1,5-a]pyrimidine-6-carboxylate]: the inhibition at 10 µM is 32.4%.

As for `COc1cc(-c2nnn[nH]2)ccc1C1C(C(=O)OCc2ccccc2)=C(C)Nc2nnnn21` (stereo not drawn) [PT-393, benzyl 7-(2-methoxy-4-(1H-tetrazol-5-yl)phenyl)-5-methyl-4,7-dihydrotetrazolo[1,5-a]pyrimidine-6-carboxylate], the inhibition at 10 µM is 9.8%.

As to `COc1cc([N+](=O)[O-])ccc1C1C(C(=O)OCc2ccccc2)=C(C)Nc2nnnn21` (stereo not drawn) [PT-395, benzyl 7-(2-methoxy-4-nitrophenyl)-5-methyl-4,7-dihydrotetrazolo[1,5-a]pyrimidine-6-carboxylate], the inhibition at 10 µM amounted to 48.7%.

As to `CC1=C(C(=O)OCc2ccccc2)C(c2cc(-c3ccsc3)cs2)n2nnnc2N1` (stereo not drawn) [PT-398, benzyl 7-(3,3′-bithiophen-5-yl)-5-methyl-4,7-dihydrotetrazolo[1,5-a]pyrimidine-6-carboxylate], the inhibition at 10 µM was 18.3%.

For `CC1=C(C(=O)OCc2ccccc2)C(c2ccccc2-c2cccc(N)c2)n2nnnc2N1` (stereo not drawn) [PT-399, benzyl 7-(3′-aminobiphenyl-2-yl)-5-methyl-4,7-dihydrotetrazolo[1,5-a]pyrimidine-6-carboxylate], the inhibition at 10 µM came out at 66.2%.

Turning to `CC1=C(C(=O)OCc2ccccc2)C(c2occc2Br)n2nnnc2N1` (stereo not drawn) [PT-400, benzyl 7-(3-bromofuran-2-yl)-5-methyl-4,7-dihydrotetrazolo[1,5-a]pyrimidine-6-carboxylate], the inhibition at 10 µM was determined as 53.2%.

For `CC1=C(C(=O)OCc2ccccc2)C(c2ccc(-n3ccnc3)cc2)n2nnnc2N1` (stereo not drawn) [PT-402, benzyl 7-(4-(1H-imidazol-1-yl)phenyl)-5-methyl-4,7-dihydrotetrazolo[1,5-a]pyrimidine-6-carboxylate], the inhibition at 10 µM was found to be 18.3%.

Turning to `CC1=C(C(=O)OCc2ccccc2)C(c2ccc(-c3nnn[nH]3)cc2)n2nnnc2N1` (stereo not drawn) [PT-403, benzyl 7-(4-(1H-tetrazol-5-yl)phenyl)-5-methyl-4,7-dihydrotetrazolo[1,5-a]pyrimidine-6-carboxylate], the inhibition at 10 µM is 9.7%.

For `CC1=C(C(=O)OCc2ccccc2)C(c2ccccc2-c2ccc(C(C)O)cc2)n2nnnc2N1` (stereo not drawn) [PT-404, benzyl 7-(4′-(1-hydroxyethyl)biphenyl-2-yl)-5-methyl-4,7-dihydrotetrazolo[1,5-a]pyrimidine-6-carboxylate], the inhibition at 10 µM amounted to 80.9%.

Turning to `CC1=C(C(=O)OCc2ccccc2)C(c2ccc(OCCN(C)C)cc2)n2nnnc2N1` (stereo not drawn) [PT-405, benzyl 7-(4-(2-(dimethylamino)ethoxy)phenyl)-5-methyl-4,7-dihydrotetrazolo[1,5-a]pyrimidine-6-carboxylate], the inhibition at 10 µM is 18.4%.

For the molecule `COCCOc1ccc(C2C(C(=O)OCc3ccccc3)=C(C)Nc3nnnn32)cc1` (stereo not drawn) [PT-406, benzyl 7-(4-(2-methoxyethoxy)phenyl)-5-methyl-4,7-dihydrotetrazolo[1,5-a]pyrimidine-6-carboxylate], the inhibition at 10 µM was 20.3%.

Consider `CC1=C(C(=O)OCc2ccccc2)C(c2ccccc2-c2ccc(OCc3ccccc3)cc2)n2nnnc2N1` (stereo not drawn) [PT-407, benzyl 7-(4′-(benzyloxy)biphenyl-2-yl)-5-methyl-4,7-dihydrotetrazolo[1,5-a]pyrimidine-6-carboxylate], for which the inhibition at 10 µM was determined as 10.6%.

For the molecule `COc1cc(N(C)C)ccc1C1C(C(=O)OCc2ccccc2)=C(C)Nc2nnnn21` (stereo not drawn) [PT-408, benzyl 7-(4-(dimethylamino)-2-methoxyphenyl)-5-methyl-4,7-dihydrotetrazolo[1,5-a]pyrimidine-6-carboxylate], the inhibition at 10 µM worked out at 30.4%.

Regarding `CC1=C(C(=O)OCc2ccccc2)C(c2ccc(N(C)C)cc2)n2nnnc2N1` (stereo not drawn) [PT-410, benzyl 7-(4-(dimethylamino)phenyl)-5-methyl-4,7-dihydrotetrazolo[1,5-a]pyrimidine-6-carboxylate], the inhibition at 10 µM came to 11.4%.

Turning to `COC(=O)c1ccc(C2C(C(=O)OCc3ccccc3)=C(C)Nc3nnnn32)c([N+](=O)[O-])c1` (stereo not drawn) [PT-411, benzyl 7-(4-(methoxycarbonyl)-2-nitrophenyl)-5-methyl-4,7-dihydrotetrazolo[1,5-a]pyrimidine-6-carboxylate], the inhibition at 10 µM was found to be 11.4%.

For `COC(=O)c1ccc(C2C(C(=O)OCc3ccccc3)=C(C)Nc3nnnn32)cc1` (stereo not drawn) [PT-412, benzyl 7-(4-(methoxycarbonyl)phenyl)-5-methyl-4,7-dihydrotetrazolo[1,5-a]pyrimidine-6-carboxylate], the inhibition at 10 µM turned out to be 27.6%.

Consider `CC1=C(C(=O)OCc2ccccc2)C(c2ccc(Br)cc2F)n2nnnc2N1` (stereo not drawn) [PT-416, benzyl 7-(4-bromo-2-fluorophenyl)-5-methyl-4,7-dihydrotetrazolo[1,5-a]pyrimidine-6-carboxylate], for which the inhibition at 10 µM was 25.6%.

For `COc1cc(C#N)ccc1C1C(C(=O)OCc2ccccc2)=C(C)Nc2nnnn21` (stereo not drawn) [PT-417, benzyl 7-(4-cyano-2-methoxyphenyl)-5-methyl-4,7-dihydrotetrazolo[1,5-a]pyrimidine-6-carboxylate], the inhibition at 10 µM was found to be 41.3%.

On to `CC1=C(C(=O)OCc2ccccc2)C(c2ccc(C#N)cc2)n2nnnc2N1` (stereo not drawn) [PT-418, benzyl 7-(4-cyanophenyl)-5-methyl-4,7-dihydrotetrazolo[1,5-a]pyrimidine-6-carboxylate], for which the inhibition at 10 µM amounted to 42.7%.

Consider `COc1ccc(C2C(C(=O)OCc3ccccc3)=C(C)Nc3nnnn32)c([N+](=O)[O-])c1` (stereo not drawn) [PT-419, benzyl 7-(4-methoxy-2-nitrophenyl)-5-methyl-4,7-dihydrotetrazolo[1,5-a]pyrimidine-6-carboxylate], for which the inhibition at 10 µM worked out at 44.2%.

For `COc1ccc(-c2ccccc2C2C(C(=O)OCc3ccccc3)=C(C)Nc3nnnn32)cc1` (stereo not drawn) [PT-420, benzyl 7-(4′-methoxybiphenyl-2-yl)-5-methyl-4,7-dihydrotetrazolo[1,5-a]pyrimidine-6-carboxylate], the inhibition at 10 µM was found to be 75.3%.

Take `COc1ccc(C2C(C(=O)OCc3ccccc3)=C(C)Nc3nnnn32)c2ccccc12` (stereo not drawn) [PT-421, benzyl 7-(4-methoxynaphthalen-1-yl)-5-methyl-4,7-dihydrotetrazolo[1,5-a]pyrimidine-6-carboxylate]: the inhibition at 10 µM came out at 23.5%.

Regarding `CCn1c2ccccc2c2cc(C3C(C(=O)OCc4ccccc4)=C(C)Nc4nnnn43)ccc21` (stereo not drawn) [PT-422, benzyl 7-(9-ethyl-9H-carbazol-3-yl)-5-methyl-4,7-dihydrotetrazolo[1,5-a]pyrimidine-6-carboxylate], the inhibition at 10 µM was determined as 35.2%.

`CCOC(=O)C1=C(C)NC(C)=C(C(=O)OCC)C1c1ccc(OC)cc1OC` [PT-429, diethyl 4-(2,4-dimethoxyphenyl)-2,6-dimethyl-1,4-dihydropyridine-3,5-dicarboxylate]: the inhibition at 10 µM stood at 14.9%.

Consider `CCOC(=O)C1=C(C)NC(C)=C(C(=O)OCC)C1c1ccc(OC)cc1C#N` [PT-431, diethyl 4-(2-cyano-4-methoxyphenyl)-2,6-dimethyl-1,4-dihydropyridine-3,5-dicarboxylate], for which the inhibition at 10 µM was 56.1%.

Consider `CCOC(=O)C1=C(C)NC(C)=C(C(=O)OCC)C1c1ccc(OC)cc1F` [PT-432, diethyl 4-(2-fluoro-4-methoxyphenyl)-2,6-dimethyl-1,4-dihydropyridine-3,5-dicarboxylate], for which the inhibition at 10 µM worked out at 56.9%.

Turning to `CCOC(=O)C1=C(C)NC(C)=C(C(=O)OCC)C1c1ccc([N+](=O)[O-])cc1OC` [PT-433, diethyl 4-(2-methoxy-4-nitrophenyl)-2,6-dimethyl-1,4-dihydropyridine-3,5-dicarboxylate], the inhibition at 10 µM is 30.3%.

In the case of `CCOC(=O)C1=C(C)NC(C)=C(C(=O)OCC)C1c1ccccc1-c1cccc(C#N)c1` [PT-435, diethyl 4-(3′-cyanobiphenyl-2-yl)-2,6-dimethyl-1,4-dihydropyridine-3,5-dicarboxylate], the inhibition at 10 µM is 19.4%.

`CCOC(=O)C1=C(C)NC(C)=C(C(=O)OCC)C1c1ccc(N(C)C)cc1OC` [PT-436, diethyl 4-(4-(dimethylamino)-2-methoxyphenyl)-2,6-dimethyl-1,4-dihydropyridine-3,5-dicarboxylate]: the inhibition at 10 µM worked out at 18.7%.

Take `CCOC(=O)C1=C(C)NC(C)=C(C(=O)OCC)C1c1ccc(N(C)C)cc1[N+](=O)[O-]` [PT-437, diethyl 4-(4-(dimethylamino)-2-nitrophenyl)-2,6-dimethyl-1,4-dihydropyridine-3,5-dicarboxylate]: the inhibition at 10 µM was determined as 43.1%.

Regarding `CCOC(=O)C1=C(C)NC(C)=C(C(=O)OCC)C1c1ccccc1-c1ccccc1` [PT-438, diethyl 4-(biphenyl-2-yl)-2,6-dimethyl-1,4-dihydropyridine-3,5-dicarboxylate], the inhibition at 10 µM amounted to 20.9%.

`CCOC(=O)C1=C(C)NC(C)=C(C(=O)OCC)C1c1cccc(-c2ccccc2)c1` [PT-439, diethyl 4-(biphenyl-3-yl)-2,6-dimethyl-1,4-dihydropyridine-3,5-dicarboxylate]: the inhibition at 10 µM turned out to be 56.1%.

Take `CCOC(=O)C1=C(C)Nc2[nH]nc(C)c2C1c1cccs1` (stereo not drawn) [PT-443, ethyl 3,6-dimethyl-4-(thiophen-2-yl)-4,7-dihydro-1H-pyrazolo[3,4-b]pyridine-5-carboxylate]: the inhibition at 10 µM came to 20%.

As to `CCOC(=O)C1=C(C)N(Cc2nnn[nH]2)c2nnnn2C1c1cccc2ccccc12` (stereo not drawn) [PT-444, ethyl 4-((1H-tetrazol-5-yl)methyl)-5-methyl-7-(naphthalen-1-yl)-4,7-dihydrotetrazolo[1,5-a]pyrimidine-6-carboxylate], the inhibition at 10 µM worked out at 9.1%.

Consider `CCOC(=O)C1=C(C)Nc2[nH]ncc2C1c1c(OC)cccc1OC` (stereo not drawn) [PT-446, ethyl 4-(2,6-dimethoxyphenyl)-6-methyl-4,7-dihydro-1H-pyrazolo[3,4-b]pyridine-5-carboxylate], for which the inhibition at 10 µM was 7%.
